Laboratory results reported in the CheMixHub viscosity set.
± gives the uncertainty stated by the source.

Experiment: xn = mol fraction of the nth substance listed

CCOC(=O)OCC + CCCCCCCC
298.15 K, 101.3 kPa
Conditions | viscosity [mPa·s]
x1 = 0.0224 | 0.517 ± 0.007
x1 = 0.0828 | 0.509 ± 0.006
x1 = 0.1137 | 0.508 ± 0.006
x1 = 0.1181 | 0.508 ± 0.006
x1 = 0.1535 | 0.508 ± 0.006
x1 = 0.1753 | 0.507 ± 0.006
x1 = 0.3802 | 0.529 ± 0.007
x1 = 0.4893 | 0.549 ± 0.007
x1 = 0.5834 | 0.572 ± 0.007
x1 = 0.6904 | 0.6 ± 0.008
x1 = 0.8119 | 0.645 ± 0.008
x1 = 0.8465 | 0.659 ± 0.008
x1 = 0.8953 | 0.681 ± 0.009
x1 = 0.9679 | 0.727 ± 0.009

Cc1ccccc1C + CC(C)(C)O
308.15 K, 101 kPa
Conditions | viscosity [mPa·s]
x2 = 0.0632 | 0.669 ± 0.014
x2 = 0.1246 | 0.679 ± 0.014
x2 = 0.204 | 0.677 ± 0.014
x2 = 0.2992 | 0.674 ± 0.014
x2 = 0.3725 | 0.731 ± 0.015
x2 = 0.4258 | 0.777 ± 0.016
x2 = 0.4948 | 0.814 ± 0.017
x2 = 0.5942 | 0.908 ± 0.019
x2 = 0.6887 | 1.028 ± 0.021
x2 = 0.7935 | 1.376 ± 0.029
x2 = 0.9065 | 1.962 ± 0.041

OCCOCCOCCO + COCCO
viscosity [mPa·s], 101 kPa
Conditions | 293.15 K | 298.15 K | 303.15 K
x2 = 0.0555 | 35.94 ± 0.23 | 30.26 ± 0.2 | 26.08 ± 0.17
x2 = 0.1005 | 32.08 ± 0.21 | 27.25 ± 0.18 | 23.69 ± 0.15
x2 = 0.1526 | 27.98 ± 0.18 | 24.06 ± 0.16 | 21.13 ± 0.14
x2 = 0.201 | 24.53 ± 0.16 | 21.36 ± 0.14 | 18.93 ± 0.12
x2 = 0.2544 | 21.12 ± 0.14 | 18.65 ± 0.12 | 16.69 ± 0.11
x2 = 0.3016 | 18.45 ± 0.12 | 16.49 ± 0.11 | 14.87 ± 0.099
x2 = 0.3421 | 16.37 ± 0.11 | 14.79 ± 0.099 | 13.44 ± 0.09
x2 = 0.4006 | 13.74 ± 0.092 | 12.58 ± 0.085 | 11.54 ± 0.078
x2 = 0.4493 | 11.83 ± 0.08 | 10.95 ± 0.074 | 10.13 ± 0.069
x2 = 0.4936 | 10.3 ± 0.07 | 9.622 ± 0.066 | 8.98 ± 0.062
x2 = 0.5499 | 8.592 ± 0.059 | 8.124 ± 0.057 | 7.664 ± 0.054
x2 = 0.6007 | 7.271 ± 0.051 | 6.95 ± 0.049 | 6.621 ± 0.047
x2 = 0.6501 | 6.157 ± 0.044 | 5.943 ± 0.043 | 5.714 ± 0.041
x2 = 0.7042 | 5.105 ± 0.038 | 4.973 ± 0.037 | 4.825 ± 0.036
x2 = 0.7531 | 4.289 ± 0.032 | 4.207 ± 0.031 | 4.115 ± 0.031
x2 = 0.7931 | 3.714 ± 0.028 | 3.65 ± 0.027 | 3.584 ± 0.027
x2 = 0.8455 | 3.061 ± 0.023 | 2.991 ± 0.022 | 2.954 ± 0.022
x2 = 0.9009 | 2.487 ± 0.019 | 2.385 ± 0.018 | 2.346 ± 0.018
x2 = 0.95 | 2.069 ± 0.016 | 1.924 ± 0.015 | 1.856 ± 0.014

CCOC(=O)OCC + Cc1ccc(C)cc1
viscosity [mPa·s]
Conditions | 293.15 K | 298.15 K | 303.15 K | 323.15 K
101 kPa, x1 = 0.0997 | 0.6494 ± 0.006 | 0.6068 ± 0.0057 | 0.5681 ± 0.0053 | 0.4546 ± 0.0044
101 kPa, x1 = 0.1509 | 0.6571 ± 0.0061 | 0.6141 ± 0.0058 | 0.5733 ± 0.0054 | 0.4578 ± 0.0045
101 kPa, x1 = 0.2121 | 0.6663 ± 0.0062 | 0.6229 ± 0.0059 | 0.5814 ± 0.0055 | 0.4633 ± 0.0046
101 kPa, x1 = 0.2979 | 0.6785 ± 0.0064 | 0.6347 ± 0.0061 | 0.5918 ± 0.0057 | 0.4704 ± 0.0047
101 kPa, x1 = 0.3942 | 0.693 ± 0.0067 | 0.6486 ± 0.0064 | 0.6058 ± 0.0059 | 0.4794 ± 0.0049
101 kPa, x1 = 0.495 | 0.7081 ± 0.007 | 0.6627 ± 0.0066 | 0.618 ± 0.0062 | 0.4891 ± 0.0051
101 kPa, x1 = 0.5955 | 0.7239 ± 0.0073 | 0.6787 ± 0.007 | 0.6309 ± 0.0065 | 0.4973 ± 0.0053
101 kPa, x1 = 0.7004 | 0.7423 ± 0.0078 | 0.6948 ± 0.0073 | 0.6471 ± 0.0068 | 0.508 ± 0.0055
101 kPa, x1 = 0.8 | 0.7603 ± 0.0082 | 0.7126 ± 0.0077 | 0.6639 ± 0.0072 | 0.5178 ± 0.0058
101 kPa, x1 = 0.8891 | 0.7782 ± 0.0086 | 0.7304 ± 0.0081 | 0.6786 ± 0.0075 | 0.5292 ± 0.0061
101.3 kPa, x1 = 0.1027 | – | 0.607 ± 0.008 | – | –
101.3 kPa, x1 = 0.1721 | – | 0.615 ± 0.008 | – | –
101.3 kPa, x1 = 0.2449 | – | 0.622 ± 0.008 | – | –
101.3 kPa, x1 = 0.3566 | – | 0.636 ± 0.008 | – | –
101.3 kPa, x1 = 0.4208 | – | 0.643 ± 0.008 | – | –
101.3 kPa, x1 = 0.4919 | – | 0.658 ± 0.009 | – | –
101.3 kPa, x1 = 0.6427 | – | 0.68 ± 0.009 | – | –
101.3 kPa, x1 = 0.716 | – | 0.687 ± 0.009 | – | –
101.3 kPa, x1 = 0.7162 | – | 0.687 ± 0.009 | – | –
101.3 kPa, x1 = 0.8043 | – | 0.701 ± 0.009 | – | –
101.3 kPa, x1 = 0.9158 | – | 0.723 ± 0.009 | – | –

Cc1ccccc1C + Cc1cccc(C)c1
viscosity [mPa·s], 101.3 kPa
Conditions | x1 = 0.0817 | x1 = 0.1825 | x1 = 0.2946 | x1 = 0.4285 | x1 = 0.5533 | x1 = 0.6715 | x1 = 0.7904 | x1 = 0.9 | x1 = 0.9001
298.15 K | 0.5998 ± 0.0052 | 0.6144 ± 0.0052 | 0.6303 ± 0.0054 | 0.6512 ± 0.0055 | 0.6731 ± 0.0056 | 0.6924 ± 0.0058 | 0.7148 ± 0.0059 | 0.7349 ± 0.006 | –
303.15 K | 0.5668 ± 0.0049 | 0.5783 ± 0.005 | 0.5938 ± 0.0051 | 0.6119 ± 0.0052 | 0.631 ± 0.005 | 0.6486 ± 0.0055 | 0.6675 ± 0.0056 | – | 0.6859 ± 0.0057

CCCCCCCCCCO + CCCCCCCO
viscosity [mPa·s], 101.8 kPa
Conditions | x2 = 0.1302 | x2 = 0.3682 | x2 = 0.5771 | x2 = 0.7604 | x2 = 0.9256
298.15 K | 10.82 ± 0.4 | 9.364 ± 0.4 | 8.193 ± 0.39 | 7.155 ± 0.38 | 6.307 ± 0.37
308.15 K | 7.586 ± 0.38 | 6.635 ± 0.36 | 5.836 ± 0.35 | 5.18 ± 0.35 | 4.596 ± 0.34
318.15 K | 5.438 ± 0.35 | 4.801 ± 0.34 | 4.264 ± 0.34 | 3.812 ± 0.33 | 3.413 ± 0.33

CCn1cc[n+](C)c1.F[B-](F)(F)F + OCCO
Conditions | viscosity [mPa·s]
313.15 K, 101 kPa, x1 = 0.7003 | 10.55 ± 1.1
323.15 K, 100 kPa, x1 = 0.717 | 9.915 ± 1
323.15 K, 101 kPa, x1 = 0.7997 | 9.913 ± 0.99

Cc1ccc(Cl)cc1 + CCOC(=O)c1ccccc1
viscosity [mPa·s], 101 kPa
Conditions | 303.15 K | 313.15 K
x2 = 0.0536 | 0.745 ± 0.012 | 0.65 ± 0.011
x2 = 0.1068 | 0.729 ± 0.012 | 0.632 ± 0.011
x2 = 0.1858 | 0.73 ± 0.012 | 0.629 ± 0.011
x2 = 0.2507 | 0.751 ± 0.013 | 0.644 ± 0.011
x2 = 0.3392 | 0.806 ± 0.013 | 0.686 ± 0.012
x2 = 0.4157 | 0.876 ± 0.014 | 0.739 ± 0.012
x2 = 0.4913 | 0.959 ± 0.015 | 0.801 ± 0.013
x2 = 0.592 | 1.092 ± 0.017 | 0.904 ± 0.015
x2 = 0.6657 | 1.201 ± 0.019 | 0.991 ± 0.016
x2 = 0.762 | 1.359 ± 0.021 | 1.109 ± 0.018
x2 = 0.8333 | 1.484 ± 0.023 | 1.206 ± 0.019
x2 = 0.907 | – | 1.315 ± 0.02
x2 = 0.9071 | 1.623 ± 0.025 | –
x2 = 0.9524 | 1.713 ± 0.026 | 1.385 ± 0.021

CCCCCCCCCCO + CCCCCCCC
298.15 K, 101.3 kPa
Conditions | viscosity [mPa·s]
x1 = 0.0592 | 0.601 ± 0.007
x1 = 0.11 | 0.678 ± 0.007
x1 = 0.1555 | 0.769 ± 0.008
x1 = 0.2012 | 0.876 ± 0.008
x1 = 0.2553 | 1.032 ± 0.009
x1 = 0.303 | 1.194 ± 0.01
x1 = 0.4085 | 1.665 ± 0.012
x1 = 0.5085 | 2.311 ± 0.016
x1 = 0.6109 | 3.244 ± 0.022
x1 = 0.7126 | 4.541 ± 0.031
x1 = 0.7879 | 5.827 ± 0.04
x1 = 0.8535 | 7.233 ± 0.049
x1 = 0.9129 | 8.795 ± 0.059
x1 = 0.9391 | 9.583 ± 0.065
